Experimental data as given in ChEMBL document CHEMBL1156447, “Cyanidin-3-rutinoside, a natural polyphenol antioxidant, selectively kills leukemic cells by induction of oxidative stress” (J Biol Chem, 2007).
The source made the active and inactive calls.

Columns and labels:
[1] = target: T1, MAP kinase p38 (Homo sapiens) (UniProt O15264+Q15759+Q16539+P53778); assay: Increase in p38 MAPK phosphorylation in catalase pretreated human HL60 cells at 80 uM after 8 hrs by immunoblot analysis; format: cell-based; details: HL-60
HL-60 [2] = assay: Induction of apoptosis in human HL60 cells assessed as cytochrome c release at 80 uM by immunoblot analysis; format: functional, cell-based
[3] = target: T1, MAP kinase p38 (Homo sapiens); assay: Increase in p38 MAPK phosphorylation in human HL60 cells at 80 uM after 8 hrs by immunoblot analysis; format: cell-based; details: HL-60
HL-60 [4] = assay: Increase in intracellular hydrogen peroxide level in human HL60 cells after 1 hr by phenol red method; format: functional, cell-based
MOLT-4 = assay: Induction of apoptosis in human MOLT4 cells after 18 hrs by Hoechst staining; format: functional, cell-based
PBMC = assay: Antioxidant activity in human PBMC assessed as reduction in intracellular peroxide levels by flow cytometry; format: functional, cell-based
[5] = target: T2, c-Jun N-terminal kinase, JNK (Homo sapiens) (UniProt P45983+P53779+P45984); assay: Increase in JNK phosphorylation in N-acetyl-cysteine pretreated human HL60 cells at 80 uM after 8 hrs by immunoblot analysis; format: cell-based; details: HL-60
HL-60 [6] = assay: Suppression of induction of apoptosis in human HL60 cells at 80 uM after 18 hrs by Hoechst staining in presence of N-acetyl-cysteine; format: functional, cell-based
HL-60 [7] = assay: Induction of apoptosis in human HL60 cells overexpressing human Bcl XL after 18 hrs by Hoechst staining; format: functional, cell-based
[8] = Antioxidant activity assessed as inhibition of superoxide production; format: functional
HL-60 [9] = assay: Suppression of induction of apoptosis in human HL60 cells at 60 uM after 18 hrs in presence of Z-VAD; format: functional, cell-based
[10] = target: T3, Bcl-2 homologous antagonist/killer (Homo sapiens) (UniProt Q16611); assay: Activation of Bak in human HL60 cells assessed as oligomerization and conformational change at 80 uM after 8 hrs by immunostaining; format: functional, cell-based; details: HL-60
T3 sequence (whole entry): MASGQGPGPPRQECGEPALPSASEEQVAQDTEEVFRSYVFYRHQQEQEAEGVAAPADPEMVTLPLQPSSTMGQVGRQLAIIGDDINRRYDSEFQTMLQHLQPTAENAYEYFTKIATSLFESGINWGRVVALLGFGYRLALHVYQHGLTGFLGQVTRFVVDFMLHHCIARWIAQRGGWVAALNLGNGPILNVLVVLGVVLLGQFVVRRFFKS

HL-60 [11] = assay: Suppression of induction of apoptosis in human HL60 cells assessed as inhibition of mitochondrial release of Smac at 80 uM after 18 hrs […] in presence of SB-203580; format: functional, cell-based
HL-60 [12] = assay: Induction of apoptosis in human HL60 cells assessed as caspase 3 activation; format: functional, cell-based
HL-60 [13] = assay: Induction of apoptosis in human HL60 cells assessed as caspase 9 activation; format: functional, cell-based
CCRF-CEM [14] = assay: Suppression of induction of apoptosis in human CCRF-CEM cells at 80 uM after 24 hrs by Hoechst staining in presence of catalase; format: functional, cell-based
HL-60 [15] = assay: Suppression of induction of apoptosis in human HL60 cells at 80 uM after 18 hrs by Hoechst staining in presence of SB-203580; format: functional, cell-based
CCRF-CEM [16] = assay: Induction of apoptosis in human CCRF-CEM cells after 18 hrs by Hoechst staining; format: functional, cell-based
CCRF-CEM [17] = assay: Suppression of induction of apoptosis in human CCRF-CEM cells at 80 uM after 24 hrs by Hoechst staining in presence of SB-203580; format: functional, cell-based
Daudi = assay: Induction of apoptosis in human Daudi cells after 18 hrs by Hoechst staining; format: functional, cell-based
HL-60 [18] = assay: Suppression of induction of apoptosis in human HL60 cells at 60 uM after 18 hrs in presence of DEVD-CHO; format: functional, cell-based
[19] = target: Apoptosis regulator BAX (Homo sapiens) (UniProt Q07812); assay: Activation of Bax in human HL60 cells assessed as mitochondrial translocation at 80 uM after 8 hrs by immunostaining; details: HL-60
Chain of Apoptosis regulator BAX (Homo sapiens) (Q07812 whole entry): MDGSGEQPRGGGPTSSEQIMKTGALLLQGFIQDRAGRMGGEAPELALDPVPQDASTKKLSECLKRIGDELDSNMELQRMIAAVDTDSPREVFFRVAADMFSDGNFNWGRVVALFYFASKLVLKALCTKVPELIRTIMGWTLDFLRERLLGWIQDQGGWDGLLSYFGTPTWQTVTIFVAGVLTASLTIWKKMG

CCRF-CEM [20] = assay: Suppression of induction of apoptosis in human CCRF-CEM cells at 80 uM after 24 hrs by Hoechst staining in presence of N-acetyl-cysteine; format: functional, cell-based
HL-60 [21] = assay: Suppression of induction of apoptosis in human HL60 cells assessed as inhibition of mitochondrial release of cytochrome c at 80 uM after 18 hrs […] in presence of SP600125; format: functional, cell-based
HL-60 [22] = assay: Suppression of induction of apoptosis in human HL60 cells at 80 uM after 18 hrs by Hoechst staining in presence of hydrogen peroxide; format: functional, cell-based
[23] = target: T1, MAP kinase p38 (Homo sapiens); assay: Increase in p38 MAPK phosphorylation in N-acetyl-cysteine pretreated human HL60 cells at 80 uM after 2 hrs by immunoblot analysis; details: HL-60
[24] = target: Bcl-2-like protein 11 (Homo sapiens) (UniProt O43521); assay: Increase in Bim EL phosphorylation in human HL60 cells at 80 uM after 8 hrs by immunoblot analysis; format: cell-based; details: HL-60
Chain of Bcl-2-like protein 11 (Homo sapiens) (O43521 whole entry, looked up): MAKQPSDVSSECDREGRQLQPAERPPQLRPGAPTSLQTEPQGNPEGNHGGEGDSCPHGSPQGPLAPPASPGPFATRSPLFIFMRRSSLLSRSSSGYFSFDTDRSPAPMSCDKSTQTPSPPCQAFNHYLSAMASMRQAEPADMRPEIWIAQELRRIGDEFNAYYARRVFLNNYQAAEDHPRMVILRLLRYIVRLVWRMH

HL-60 [25] = assay: Suppression of induction of apoptosis in human HL60 cells assessed as inhibition of mitochondrial release of cytochrome c at 80 uM after 18 hrs […] in presence of SB-203580; format: functional, cell-based
HL-60 [26] = assay: Induction of apoptosis in human HL60 cells assessed as Smac release at 80 uM by immunoblot analysis; format: functional, cell-based
[27] = target: T2, c-Jun N-terminal kinase, JNK (Homo sapiens); assay: Increase in JNK catalase pretreated human HL60 cells at 80 uM after 8 hrs by immunoblot analysis; format: cell-based; details: HL-60
HL-60 [28] = assay: Induction of apoptosis in human HL60 cells after 18 hrs by Hoechst 33258 staining; format: functional, cell-based
[29] = Antioxidant activity in Ti(IV)-hydrogen peroxide complex system assessed as inhibition of hydrogen peroxide production; format: functional
[30] = Antioxidant activity assessed as inhibition of peroxyl radical production; format: functional
HL-60 [31] = assay: Induction of apoptosis in human HL60 cells at 60 uM by Hoechst 33258 staining; format: functional, cell-based; details: TDE = time-dependent effect
HL-60 [32] = assay: Increase in hydrogen peroxide accumulation in human HL60 cells at 80 uM by flow cytometry; format: functional, cell-based
HL-60 [33] = assay: Suppression of induction of apoptosis in human HL60 cells assessed as inhibition of mitochondrial release of Smac at 80 uM after 18 hrs […] in presence of SP600125; format: functional, cell-based
HL-60 [34] = assay: Suppression of induction of apoptosis in human HL60 cells at 80 uM after 18 hrs by Hoechst staining in presence of catalase; format: functional, cell-based
HL-60 [35] = assay: Suppression of induction of apoptosis in human HL60 cells at 80 uM after 18 hrs by Hoechst staining in presence of SP600125; format: functional, cell-based
CCRF-CEM [36] = assay: Induction of apoptosis in human CCRF-CEM cells expressing shRNA against Bim at 80 uM after 24 hrs by Hoechst staining; format: functional, cell-based
HL-60 [37] = assay: Induction of apoptosis in human HL60 cells overexpressing human Bcl2 after 18 hrs by Hoechst staining; format: functional, cell-based
[38] = target: T2, c-Jun N-terminal kinase, JNK (Homo sapiens); assay: Increase in JNK phosphorylation in human HL60 cells at 80 uM after 8 hrs by immunoblot analysis; format: cell-based; details: HL-60

Measured: Activity

C[C@@H]1O[C@@H](OC[C@H]2O[C@@H](Oc3cc4c(O)cc(O)cc4[o+]c3-c3ccc(O)c(O)c3)[C@H](O)[C@@H](O)[C@@H]2O)[C@H](O)[C@H](O)[C@H]1O
active: HL-60 [2] | [3] | HL-60 [4] | MOLT-4 | PBMC | HL-60 [6] | [8] | HL-60 [9] | [10] | HL-60 [11] | HL-60 [12] Dose-dependent effect | HL-60 [13] Dose-dependent effect | CCRF-CEM [14] | HL-60 [15] | CCRF-CEM [16] | CCRF-CEM [17] | Daudi | HL-60 [18] | [19] | CCRF-CEM [20] | HL-60 [21] | HL-60 [22] | [24] | HL-60 [25] | HL-60 [26] | HL-60 [28] Dose-dependent effect | [29] Dose-dependent effect | [30] | HL-60 [31] tde | HL-60 [32] | HL-60 [33] | HL-60 [34] | HL-60 [35] | [38]
inactive: [1] | [5] | HL-60 [7] | [23] | [27] | CCRF-CEM [36] | HL-60 [37]
